Legend:
guinea pig = assay: PAF-induced bronchospasm in the guinea pig; format: in vivo
mouse = assay: protection against PAF-induced lethal systemic shock in the mouse; format: in vivo; details: oral dose of 5 mg/kg, PAF 100 μg/kg
Description: Haemostas, 56(1) 40-44 (1986) and that of protection against lethal systemic shock in the mouse, which is described in J. Pharmacol. Exp. Ther 247(2) 617-23 (1988).

rabbit platelets = assay: inhibition of the aggregation of rabbit platelets induced by the PAF-acether; format: cell-based; details: Oryctolagus cuniculus, Platelet, PAF introduced into the medium at 4×10^-10 M, read-out: IC50 (concentration inhibiting 50% of the aggregation induced by the PAF)
Description: Thus in vitro it is possible to study the inhibition of the aggregation of rabbit platelets induced by the PAF-acether according to the method described in Thrombosis Research 41 211-226 (1986). […] Therap.

SMILES: CC(C)c1cc(C(C)C)c(-c2csc(N(CCN(C)C)Cc3cccnc3)n2)c(C(C)C)c1 [Example 2]
- duration of complete inhibition of the bronchospasm (guinea pig; IV dose of 1 mg/kg): more than 96 hours
- duration of complete inhibition of the bronchospasm (guinea pig; oral dose of 3 mg/kg): more than 96 hours

SMILES: Cc1cc(C)c(-c2csc(N(CCN(C)C)Cc3cccnc3)n2)c(C)c1 [Example 14, 2-(N-[2-N',N'-dimethylaminoethyl]N-[3-pyridylmethyl]amino)4-(2,4,6-trimethylphenyl)thiazole]
- protection from the lethal systemic shock induced by the PAF (mouse): protect the mouse from the lethal systemic shock

SMILES: Cc1nnc2n1-c1sc(CCC(=O)N3CCOCC3)cc1C(c1ccccc1Cl)=NC2 [WEB 2086]
- IC50 (rabbit platelets): 50 nM

SMILES: CC(C)c1cc(C(C)C)c(-c2nc(N(CCN(C)C)Cc3cccnc3)sc2Br)c(C(C)C)c1 [Example 90, 2-(N-[2-N',N'-dimethylaminoethyl]N-[3-pyridylmethyl]amino) 5-bromo 4-(2,4,6-triisopropylphenyl) thiazole]
- protection from the lethal systemic shock induced by the PAF (mouse): protect the mouse from the lethal systemic shock

SMILES: Cc1sc(N(CCN(C)C)Cc2cccnc2)nc1-c1ccc(Cl)cc1Cl [Example 50, 2-(N-[2-N',N'-dimethylaminoethyl]N-[3-pyridylmethyl]amino)4-(2,4-dichlorophenyl) 5-methyl thiazole]
- protection from the lethal systemic shock induced by the PAF (mouse): protect the mouse from the lethal systemic shock

SMILES: Cc1oc(N(CCN(C)C)Cc2cccnc2)nc1-c1ccc(Cl)cc1Cl [Example 79, 2(N-[2-N',N'-dimethylaminoethyl]N-[3-pyridylmethyl]amino) 4-(2,4-dichlorophenyl)5-methyl oxazole]
- protection from the lethal systemic shock induced by the PAF (mouse): protect the mouse from the lethal systemic shock

SMILES: CC(C)c1cc(C(C)C)c(-c2nc(N(CCN(C)C)Cc3cccnc3)sc2Cl)c(C(C)C)c1 [Example 91, 2-(N-[2-N',N'-dimethylaminoethyl]N-[3-pyridylmethyl]amino) 5-chloro 4-(2,4,6-triisopropylphenyl)thiazole]
- protection from the lethal systemic shock induced by the PAF (mouse): protect the mouse from the lethal systemic shock
